This passage reports inhibition results from patent US11225480B2, “Malic enzyme inhibitors” (SUN PHARMA ADVANCED RESEARCH COMPANY LTD, priority 2019, dated 2022).

Holding throughout (type): biochemical
The target in one assay is T1, human ME1 enzyme (Homo sapiens, UniProt P48163).
T1 sequence (P48163 1-572): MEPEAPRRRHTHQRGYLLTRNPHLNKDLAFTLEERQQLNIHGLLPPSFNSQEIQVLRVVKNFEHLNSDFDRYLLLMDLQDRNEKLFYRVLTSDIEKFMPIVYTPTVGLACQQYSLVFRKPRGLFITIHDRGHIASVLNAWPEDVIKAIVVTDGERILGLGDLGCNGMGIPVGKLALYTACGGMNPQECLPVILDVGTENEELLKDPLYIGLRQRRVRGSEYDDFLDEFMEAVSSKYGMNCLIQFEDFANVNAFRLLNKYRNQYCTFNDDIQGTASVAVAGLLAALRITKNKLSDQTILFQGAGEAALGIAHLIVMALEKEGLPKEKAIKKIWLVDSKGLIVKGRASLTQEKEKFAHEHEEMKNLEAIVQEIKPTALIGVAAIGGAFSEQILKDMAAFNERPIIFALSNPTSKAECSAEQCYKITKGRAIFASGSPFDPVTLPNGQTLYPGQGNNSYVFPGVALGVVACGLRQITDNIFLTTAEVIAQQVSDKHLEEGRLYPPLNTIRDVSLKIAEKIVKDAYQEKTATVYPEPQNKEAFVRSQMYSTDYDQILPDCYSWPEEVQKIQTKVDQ
Briefly: ME1 inhibition assay (diaphorase/resazurin coupled fluorescence). The following applies: 10 μM compound concentration; read-out: Malic Enzyme 1 % inhibition (10 μM). The procedure:
ME1 catalyzes the oxidative decarboxylation of malate to pyruvate with conversion of the co-factor β-NADP+ to β-NADPH. In the fluorescence assay, a coupled reaction is set up where in an enzyme, Diaphorase, utilizes NADPH generated by ME1, to convert the dye resazurin to a fluorescent molecule resorufin. Resorufin has a characteristic fluorescence with excitation/emission at 540/600 nm (SLAS Discov., 2017 April 1:2472555217706649).
The enzyme activity inhibition assay is set up in a 200 μL final reaction volume in a 96-well plate. As per the experimental design, 2 μL of the compounds at 100× the desired concentration (10 μM) in DMSO were added to the respective wells with 178 μL of assay buffer (50 mM Tris-HCl pH 7.5, 10 mM MnCl2, 2 mM L-malate, 10 μM Resazurin and 0.01 mg/ml Diapharose). The 96-well plate was incubated on a plate shaker at room temperature for 15 minutes protected from light. The well contents were gently mixed by adding 10 μL of 20 nM human ME1 enzyme to the wells and the plate was incubated on a shaker at room temperature for 5 minutes protected from light. Suitable ‘enzyme only’ and ‘no enzyme’ controls were included in the experiment. The enzymatic reaction was started by adding 10 μL of 0.3 mM D-NADP+. The reaction was gently mixed and the plate was initially left on a shaker at room temperature for −7 minutes protected from light. Later, the plate was incubated without shaking at room temperature for 2 hours. At the end of 2 hours, the fluorescence of the wells was measured at excitation 540 nm and emission 600 nm. The % enzyme activity of the compounds is obtained by normalizing the data with enzyme only (100%) and no enzyme controls (0%) using GraphPad Prism software 7.04.
A general note: Resazurin is reduced to fluorescent resorufin, in cell work by metabolically active cells.

A further assay deals with T2, human ME3 enzyme (Homo sapiens, UniProt Q16798).
T2 sequence (Q16798 1-604): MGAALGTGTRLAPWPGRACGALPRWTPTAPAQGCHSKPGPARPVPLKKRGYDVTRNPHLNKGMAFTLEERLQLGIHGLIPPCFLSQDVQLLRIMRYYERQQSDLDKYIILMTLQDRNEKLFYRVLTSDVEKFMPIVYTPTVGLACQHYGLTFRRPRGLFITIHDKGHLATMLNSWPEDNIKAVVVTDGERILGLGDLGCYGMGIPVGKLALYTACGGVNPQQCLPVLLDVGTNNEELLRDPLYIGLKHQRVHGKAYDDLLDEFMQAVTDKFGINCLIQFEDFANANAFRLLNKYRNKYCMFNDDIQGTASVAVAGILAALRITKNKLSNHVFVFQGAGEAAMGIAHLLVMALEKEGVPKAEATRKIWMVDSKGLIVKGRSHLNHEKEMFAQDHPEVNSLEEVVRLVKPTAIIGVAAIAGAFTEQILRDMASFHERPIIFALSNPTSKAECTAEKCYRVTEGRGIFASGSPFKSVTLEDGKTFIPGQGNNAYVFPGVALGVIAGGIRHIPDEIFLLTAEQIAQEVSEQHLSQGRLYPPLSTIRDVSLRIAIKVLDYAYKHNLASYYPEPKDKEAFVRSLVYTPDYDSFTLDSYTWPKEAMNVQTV
Briefly: ME3 inhibition assay (diaphorase/resazurin coupled fluorescence). As to conditions: 10 μM compound concentration; read-out: Malic Enzyme 3 % inhibition (10 μM). In short, it runs like this:
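Coupled read-out: NADPH made by human ME3 (20 nM stock) drives diaphorase conversion of resazurin (50 μM) to resorufin; buffer 50 mM Tris-HCl pH 7.5, 10 mM MnCl2, 3 mM L-malate.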

For another assay, the target named is human ME2 enzyme (Homo sapiens, UniProt P23368). The assay is described as follows: ME2 inhibition assay (diaphorase/resazurin coupled fluorescence). As to conditions: 10 μM compound concentration; read-out: Malic Enzyme 2 % inhibition (10 μM). The procedure: ME2 catalyzes the oxidative decarboxylation of malate to pyruvate with conversion of the co-factor β-NAD+ to β-NADH. In the fluorescence assay, a coupled reaction is set up where in an enzyme, Diaphorase, utilizes NADH generated by ME2, to convert the dye resazurin to a fluorescent molecule resorufin. Resorufin has a characteristic fluorescence with excitation/emission at 540/600 nm (SLAS Discov., 2017 April 1:2472555217706649).
The enzyme activity inhibition assay is set up in a 200 μL final reaction volume in a 96-well plate. As per the experimental design, 2 μL of the compounds at 100× the desired concentration (10 μM) in DMSO were added to the respective wells with 178 μL of assay buffer (50 mM Tris-HCl pH 7.5, 10 mM MnCl2, 7 mM L-malate, 50 μM Resazurin and 0.025 mg/ml Diapharose). The 96-well plate was incubated on a plate shaker at room temperature for 15 minutes protected from light. The well contents were gently mixed by adding 10 μL of 60 nM human ME2 enzyme to the wells and the plate was incubated on a shaker at room temperature for 5 minutes protected from light. Suitable ‘enzyme only’ and ‘no enzyme’ controls were included in the experiment. The enzymatic reaction was started by adding 10 μL of 2 mM β-NAD+. The reaction was gently mixed and the plate was initially left on a shaker at room temperature for −7 minutes protected from light. Later, the plate was incubated without shaking at room temperature for 2 hours. At the end of 2 hours, the fluorescence of the wells was measured at excitation 540 nm and emission 600 nm. The % enzyme activity of the compounds is obtained by normalizing the data with enzyme only (100%) and no enzyme controls (0%) using GraphPad Prism software 7.04.

Molecules are shown by their SMILES. Structures can show the parent of a compound that is named as a salt.

human ME2 enzyme, sequence (P23368 19-584): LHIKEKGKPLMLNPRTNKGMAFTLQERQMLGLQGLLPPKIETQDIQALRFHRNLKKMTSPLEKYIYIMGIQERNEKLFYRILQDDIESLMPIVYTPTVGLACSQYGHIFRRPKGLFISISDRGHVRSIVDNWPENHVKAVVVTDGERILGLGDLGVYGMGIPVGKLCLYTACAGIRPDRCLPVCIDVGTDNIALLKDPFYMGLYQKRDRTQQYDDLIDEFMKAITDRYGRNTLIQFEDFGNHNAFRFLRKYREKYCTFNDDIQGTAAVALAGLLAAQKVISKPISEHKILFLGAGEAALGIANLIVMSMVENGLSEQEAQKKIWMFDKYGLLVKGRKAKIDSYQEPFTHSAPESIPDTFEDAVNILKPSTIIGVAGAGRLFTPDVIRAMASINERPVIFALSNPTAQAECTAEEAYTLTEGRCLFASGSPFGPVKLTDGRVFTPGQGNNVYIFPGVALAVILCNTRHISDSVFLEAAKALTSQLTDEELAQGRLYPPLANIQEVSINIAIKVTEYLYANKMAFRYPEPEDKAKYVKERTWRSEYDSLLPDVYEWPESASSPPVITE

As to `O=C(CC12CC3CC(CC(C3)C1)C2)N1CCN(c2ccc(O)cn2)CC1` [I.55, 2-(1-adamantyl)-1-[4-(5-hydroxy-2-pyridyl)piperazin-1-yl]ethanone], the results for the inhibition at 10 µM at human ME1 enzyme, on human ME3 enzyme and on human ME2 enzyme were above 90%, above 90% and 70 to 89%, respectively.
Turning to `O=C(CC12CC3CC(CC(O)(C3)C1)C2)N1CCN(c2ccc(O)cn2)CC1` [I.56, 2-(3-Hydroxy-1-adamantyl)-1-[4-(5-hydroxy-2-pyridyl)-piperazin-1-yl]ethanone], the inhibition (in general, the percentage by which the read-out fell short of the control) at 10 µM is 50 to 69% at human ME1 enzyme, above 90% at human ME3 enzyme and 70 to 89% at human ME2 enzyme.
In the same order, the values of `O=C(CNCC12CC3CC(CC(C3)C1)C2)N1CCN(c2ccc(O)cn2)CC1` [I.57, 2-(1-adamantylmethylamino)-1-[4-(5-hydroxy-2-pyridyl)piperazin-1-yl]ethanone] are 70 to 89%, above 90% and 70 to 89%.
With `O=C(C(c1ccc(Cl)cc1)c1ccc(Cl)cc1)N1CCN(c2ccc(O)cn2)CC1` [I.58, 2,2-bis(4-Chloro-phenyl)-1-[4-(5-hydroxy-2-pyridyl)-piperazin-1-yl]ethanone], the inhibition at 10 µM was 70 to 89% at human ME1 enzyme, above 90% on human ME3 enzyme and 50 to 69% on human ME2 enzyme.
With `O=C(c1cn(CC2CC2)c2ccccc2c1=O)N1CCN(c2ccc(O)cn2)CC1` [I.59, 1-(Cyclo-propyl-methyl)-3-[4-(5-hydroxy-2-pyridyl)-piperazine-1-carbonyl]-quinolin-4-one], the values for the inhibition at 10 µM on human ME1 enzyme, on human ME3 enzyme and on human ME2 enzyme were 70 to 89%, above 90% and 70 to 89%, respectively.
As to `O=C(C=C1c2ccccc2-c2ccccc21)N1CCN(c2ccc(O)cn2)CC1` [I.60, 2-Fluoren-9-ylidene-1-[4-(5-hydroxy-2-pyridyl)-piperazin-1-yl]ethanone], the figures for the inhibition at 10 µM at human ME1 enzyme, on human ME3 enzyme and at human ME2 enzyme were 70 to 89%, above 90% and 70 to 89%, respectively.
On to `O=C(CC1c2ccccc2-c2ccccc21)N1CCN(c2ccc(O)cn2)CC1` [I.61, 2-(9H-Fluoren-9-yl)-1-[4-(5-hydroxy-2-pyridyl)-piperazin-1-yl]ethanone], for which the values for the inhibition at 10 µM at human ME1 enzyme, on human ME3 enzyme and at human ME2 enzyme were 70 to 89%, above 90% and 70 to 89%, respectively.
For `O=C(Cc1c[nH]c2ccccc12)N1CCN(c2ccc(O)cn2)CC1` [I.62, 1-[4-(5-Hydroxy-pyridin-2-yl)-piperazin-1-yl]-2-(1H-indol-3-yl)-ethanone], the figures for the inhibition at 10 µM on human ME1 enzyme, at human ME3 enzyme and on human ME2 enzyme were 70 to 89%, above 90% and 70 to 89%, respectively.
Turning to `O=C(c1c[nH]c2ncccc12)N1CCN(c2ccc(O)cn2)CC1` [I.63, [4-(5-Hydroxy-pyridin-2-yl)-piperazin-1-yl]-(1H-pyrrolo[2,3-b]pyridin-3-yl)-methanone], the inhibition at 10 µM is 70 to 89% on human ME1 enzyme, above 90% on human ME3 enzyme and 70 to 89% at human ME2 enzyme.
As for `O=C(c1c2ccccc2cc2ccccc12)N1CCN(c2ccc(O)cn2)CC1` [I.64], the inhibition at 10 µM at human ME1 enzyme was 70 to 89%; at human ME3 enzyme, above 90%; at human ME2 enzyme it was 50 to 69%.
As to `O=C(CCCc1ccccc1)N1CCN(c2ccc(O)cn2)CC1` [I.65, 1-[4-(5-Hydroxy-pyridin-2-yl)-piperazin-1-yl]-4-phenylbutan-1-one], the inhibition at 10 µM on human ME1 enzyme is 70 to 89%; on human ME3 enzyme, above 90%; at human ME2 enzyme, 70 to 89%.
`O=C(CCc1ccncc1)N1CCN(c2ccc(O)cn2)CC1` [I.66, 1-[4-(5-Hydroxy-pyridin-2-yl)-piperazin-1-yl]-3-pyridin-4-yl-propan-1-one]: the inhibition at 10 µM on human ME1 enzyme is 70 to 89%; on human ME3 enzyme it was above 90%; at human ME2 enzyme, 70 to 89%.
In the case of `O=C(C1Cc2ccccc2C1)N1CCN(c2ccc(O)cn2)CC1` [I.67, [4-(5-Hydroxy-pyridin-2-yl)-piperazin-1-yl]-indan-2-yl-methanone], the results for the inhibition at 10 µM at human ME1 enzyme, on human ME3 enzyme and on human ME2 enzyme were above 90%, above 90% and 50 to 69%, respectively.
On to `O=C(CCCCc1ccccc1)N1CCN(c2ccc(O)cn2)CC1` [I.68, 1-[4-(5-Hydroxy-pyridin-2-yl)-piperazin-1-yl]-5-phenylpentan-1-one hydrochloride], for which the inhibition at 10 µM on human ME1 enzyme is above 90%; on human ME3 enzyme it was above 90%; at human ME2 enzyme, 70 to 89%.
On to `Cn1cc(C(=O)N2CCN(c3ccc(O)cn3)CC2)c(=O)c2ccccc21` [I.69, 3-[4-(5-Hydroxy-2-pyridyl)-piperazine-1-carbonyl]-1-methyl-quinolin-4-one], for which the inhibition at 10 µM was 70 to 89% on human ME1 enzyme, above 90% at human ME3 enzyme and 70 to 89% at human ME2 enzyme.
As to `O=C(O)CCCC(=O)N1CCN(c2ccc(O)cn2)CC1` [I.70, 5-[4-(5-hydroxy-2-pyridyl)piperazin-1-yl]-5-oxo-pentanoic acid], the inhibition at 10 µM at human ME1 enzyme was 70 to 89%; on human ME3 enzyme it was above 90%; at human ME2 enzyme, 70 to 89%.
Regarding `Cn1cc(C(=O)N2CCN(c3ccc(O)cn3)CC2)c2ccccc21` [I.71, [4-(5-Hydroxy-pyridin-2-yl)-piperazin-1-yl]-(1-methyl-1H-indol-3-yl)-methanone], the inhibition at 10 µM on human ME1 enzyme is above 90%; on human ME3 enzyme, above 90%; on human ME2 enzyme, 70 to 89%.
